From paper PMC2180168 (BMC Pharmacology, 2007)

How the values were obtained:
in vivo = conditions: CD1, mouse, plasma, ip
[1] = system: Hodgkin lymphoma cell lines; parameters: method as in PMID 11953894; conditions: cited from earlier work
[2] = system: refractory/relapsed myeloma; conditions: patients with refractory/relapsed myeloma; cited from earlier work
[3] = system: anaplastic large cell lymphoma with NPM-ALK fusion protein cell lines; parameters: method as in PMID 11532349; conditions: cited from earlier work
[4] = system: multiple myeloma cell line; conditions: cited from earlier work

SMILES | AUC(0-t) (in vivo; 12 mg/kg/d) [ng·h/mL] | AUC(0-t) (in vivo; 12 mg/kg/day) [ng·h/mL] | half-life (in vivo; 12 mg/kg/day) [min] | effect in Hodgkin lymphoma cell lines [1] | response in phase II trial [2] | effect in anaplastic large cell lymphoma cell lines [3] | in vitro antiproliferative effect on a multiple myeloma cell line [4]
COc1cc([C@@H]2c3cc4c(cc3[C@@H](O[C@@H]3O[C@@H]5CO[C@@H](C)O[C@H]5[C@H](O)[C@H]3O)[C@H]3COC(=O)[C@H]23)OCO4)cc(OC)c1O [etoposide] | 17900 | 20000 | 14.4 |  |  |  | 
Cc1ccc(NC(=O)c2ccc(CN3CCN(C)CC3)cc2)cc1Nc1nccc(-c2cccnc2)n1 [imatinib] |  |  |  | minimal effect | no response | minimal effect | antiproliferative effect
